{
  "source": "patent US6632803B1",
  "about": "“Pharmaceutical formulations containing voriconazole” (Pfizer Inc, priority 1997, dated 2003)",
  "format_in_all_cases": "physicochemical",
  "key": {"log D of voriconazole": {"assay": "log D of voriconazole"}, "stability in water": {"assay": "stability in water", "conditions": "inactive enantiomer formed from recombination of retro-aldol products of hydrolysis"}, "[1]": {"assay": "aqueous solubility of voriconazole", "conditions": "aqueous solution, pH 3, aqueous buffer"}},
  "data": [
    {"compound": "C[C@@H](c1ncncc1F)[C@](O)(Cn1cncn1)c1ccc(F)cc1F", "note": "[Voriconazole]", "values": [
      {"measurement": "logD", "setting": "log D of voriconazole", "result": 1.8},
      {"measurement": "stability in water", "setting": "stability in water", "result": "not stable in water"},
      {"measurement": "solubility", "setting": "[1]", "result": 200, "unit": "µg/mL"}
    ]}
  ]
}
